Test results from the NIST ThermoML archive (doi:10.1021/je700152c).
± gives the expanded uncertainty stated by the source.

Test: molar heat capacity at saturation pressure

CCCCn1cc[n+](C)c1.Cc1ccc(S(=O)(=O)[O-])cc1 [1-butyl-3-methylimidazolium tosylate]
Conditions	molar heat capacity [J/K/mol]
5.19 K, Crystal 2	2.822 ± 0.12
5.39 K, Crystal 2	3.132 ± 0.12
5.69 K, Crystal 2	3.579 ± 0.14
5.99 K, Crystal 2	4.042 ± 0.15
6.33 K, Crystal 2	4.588 ± 0.16
6.71 K, Crystal 2	5.224 ± 0.18
7.1 K, Crystal 2	5.913 ± 0.2
7.49 K, Crystal 2	6.618 ± 0.21
7.88 K, Crystal 2	7.372 ± 0.23
8.27 K, Crystal 2	8.155 ± 0.25
8.67 K, Crystal 2	8.98 ± 0.27
9.06 K, Crystal 2	9.831 ± 0.29
9.46 K, Crystal 2	10.7 ± 0.31
9.86 K, Crystal 2	11.58 ± 0.33
10.37 K, Crystal 2	12.77 ± 0.35
10.99 K, Crystal 2	14.2 ± 0.38
11.62 K, Crystal 2	15.75 ± 0.41
12.24 K, Crystal 2	17.23 ± 0.44
12.87 K, Crystal 2	18.81 ± 0.47
13.5 K, Crystal 2	20.4 ± 0.5
14.13 K, Crystal 2	22.01 ± 0.53
14.77 K, Crystal 2	23.69 ± 0.56
15.52 K, Crystal 2	25.71 ± 0.59
16.38 K, Crystal 2	28.11 ± 0.62
17.25 K, Crystal 2	30.43 ± 0.65
18.11 K, Crystal 2	32.69 ± 0.68
18.98 K, Crystal 2	34.95 ± 0.71
19.85 K, Crystal 2	37.28 ± 0.74
21.02 K, Crystal 2	40.42 ± 0.78
22.47 K, Crystal 2	44.36 ± 0.81
23.94 K, Crystal 2	48.42 ± 0.84
25.4 K, Crystal 2	52.37 ± 0.87
26.86 K, Crystal 2	56.28 ± 0.93
27.91 K, Crystal 2	59.01 ± 0.93
29.13 K, Crystal 2	62.18 ± 0.93
30.61 K, Crystal 2	65.96 ± 0.81
32.24 K, Crystal 2	70.12 ± 0.87
34.04 K, Crystal 2	74.47 ± 0.93
35.85 K, Crystal 2	78.78 ± 0.96
37.65 K, Crystal 2	82.79 ± 0.99
39.46 K, Crystal 2	86.82 ± 1.1
41.36 K, Crystal 2	90.86 ± 1.1
43.36 K, Crystal 2	95.05 ± 1.1
45.37 K, Crystal 2	99.18 ± 1.2
47.37 K, Crystal 2	103.21 ± 1.2
49.38 K, Crystal 2	107.12 ± 1.2
51.39 K, Crystal 2	110.88 ± 1.3
53.4 K, Crystal 2	114.57 ± 1.3
55.41 K, Crystal 2	118.11 ± 1.4
57.43 K, Crystal 2	121.56 ± 1.4
59.46 K, Crystal 2	124.97 ± 1.5
61.48 K, Crystal 2	128.2 ± 1.5
63.5 K, Crystal 2	131.49 ± 1.5
65.48 K, Crystal 2	134.6 ± 1.6
67.5 K, Crystal 2	137.79 ± 1.6
69.52 K, Crystal 2	140.83 ± 1.6
71.55 K, Crystal 2	143.85 ± 1.6
73.58 K, Crystal 2	146.89 ± 1.7
75.61 K, Crystal 2	149.84 ± 1.7
77.64 K, Crystal 2	152.66 ± 1.7
78.3 K, Crystal 2	153.84 ± 1.7
78.41 K, Crystal 2	154.03 ± 1.8
78.68 K, Metastable crystal	155.18 ± 1.8
79.68 K, Crystal 2	155.55 ± 1.8
80.29 K, Crystal 2	156.42 ± 1.8
80.4 K, Crystal 2	156.6 ± 1.8
80.63 K, Crystal 2	156.82 ± 1.8
80.67 K, Metastable crystal	157.91 ± 1.8
81.72 K, Crystal 2	158.34 ± 1.8
82.14 K, Crystal 2	158.9 ± 1.8
82.25 K, Crystal 2	158.9 ± 1.8
82.53 K, Metastable crystal	160.36 ± 1.8
82.63 K, Crystal 2	159.37 ± 1.8
83.76 K, Crystal 2	161.26 ± 1.8
84.01 K, Crystal 2	161.35 ± 1.8
84.11 K, Crystal 2	161.51 ± 1.8
84.39 K, Metastable crystal	163.15 ± 1.9
84.49 K, Crystal 2	161.88 ± 1.8
85.88 K, Crystal 2	163.77 ± 1.9
85.98 K, Crystal 2	164.02 ± 1.9
86.26 K, Metastable crystal	165.85 ± 1.9
86.36 K, Crystal 2	164.39 ± 1.9
87.76 K, Crystal 2	166.29 ± 1.9
87.86 K, Crystal 2	166.47 ± 1.9
88.14 K, Metastable crystal	168.4 ± 1.9
88.24 K, Crystal 2	166.85 ± 1.9
89.65 K, Crystal 2	168.77 ± 1.9
89.74 K, Crystal 2	168.83 ± 1.9
90.02 K, Metastable crystal	171.1 ± 1.9
90.12 K, Crystal 2	169.39 ± 1.9
91.54 K, Crystal 2	171.25 ± 1.9
91.63 K, Crystal 2	171.32 ± 1.9
91.92 K, Metastable crystal	173.77 ± 1.9
92.02 K, Crystal 2	171.84 ± 1.9
93.45 K, Crystal 2	173.71 ± 1.9
93.54 K, Crystal 2	173.8 ± 1.9
93.82 K, Metastable crystal	176.53 ± 1.9
93.92 K, Crystal 2	174.27 ± 1.9
95.36 K, Crystal 2	176.16 ± 1.9
95.45 K, Crystal 2	176.25 ± 1.9
95.72 K, Metastable crystal	179.17 ± 2
95.83 K, Crystal 2	176.69 ± 1.9
97.28 K, Crystal 2	178.64 ± 2
97.37 K, Crystal 2	178.7 ± 2
97.64 K, Metastable crystal	181.78 ± 2
97.75 K, Crystal 2	179.08 ± 2
99.21 K, Crystal 2	181.03 ± 2
99.29 K, Crystal 2	181.06 ± 2
99.55 K, Metastable crystal	184.48 ± 2
99.67 K, Crystal 2	181.44 ± 2
101.08 K, Crystal 2	183.3 ± 2
101.16 K, Crystal 2	183.36 ± 2
101.42 K, Metastable crystal	187.02 ± 2
101.54 K, Crystal 2	183.8 ± 2
102.89 K, Crystal 2	185.56 ± 2
102.98 K, Crystal 2	185.56 ± 2
103.22 K, Metastable crystal	189.6 ± 2
103.36 K, Crystal 2	186.06 ± 2
104.71 K, Crystal 2	187.86 ± 2
104.79 K, Crystal 2	187.86 ± 2
105.03 K, Metastable crystal	192.05 ± 2.1
105.18 K, Crystal 2	188.27 ± 2
106.53 K, Crystal 2	190.03 ± 2.1
106.61 K, Crystal 2	190.07 ± 2.1
106.84 K, Metastable crystal	194.54 ± 2.1
107 K, Crystal 2	190.5 ± 2.1
108.37 K, Crystal 2	192.21 ± 2.1
108.44 K, Crystal 2	192.24 ± 2.1
108.66 K, Metastable crystal	197.08 ± 2.1
108.83 K, Crystal 2	192.7 ± 2.1
110.2 K, Crystal 2	194.41 ± 2.1
110.27 K, Crystal 2	194.41 ± 2.1
110.48 K, Metastable crystal	199.56 ± 2.2
110.67 K, Crystal 2	194.88 ± 2.1
112.03 K, Crystal 2	196.58 ± 2.1
112.1 K, Crystal 2	196.52 ± 2.1
112.31 K, Metastable crystal	201.92 ± 2.2
112.5 K, Crystal 2	197.14 ± 2.1
113.87 K, Crystal 2	198.73 ± 2.1
113.94 K, Crystal 2	198.82 ± 2.1
114.13 K, Metastable crystal	204.5 ± 2.2
114.34 K, Crystal 2	199.29 ± 2.1
115.71 K, Crystal 2	200.99 ± 2.2
115.78 K, Crystal 2	201.09 ± 2.2
115.96 K, Metastable crystal	207.01 ± 2.2
116.18 K, Crystal 2	201.52 ± 2.2
117.56 K, Crystal 2	203.23 ± 2.2
117.62 K, Crystal 2	203.17 ± 2.2
117.79 K, Metastable crystal	209.47 ± 2.3
118.02 K, Crystal 2	203.66 ± 2.2
119.41 K, Crystal 2	205.4 ± 2.2
119.46 K, Crystal 2	205.31 ± 2.2
119.62 K, Metastable crystal	212.17 ± 2.3
119.87 K, Crystal 2	205.87 ± 2.2
121.26 K, Crystal 2	207.48 ± 2.2
121.3 K, Crystal 2	207.51 ± 2.2
121.45 K, Metastable crystal	214.65 ± 2.3
121.71 K, Crystal 2	208.04 ± 2.2
123.11 K, Crystal 2	209.71 ± 2.3
123.16 K, Crystal 2	209.78 ± 2.3
123.28 K, Metastable crystal	217.2 ± 2.3
123.56 K, Crystal 2	210.24 ± 2.3
124.97 K, Crystal 2	211.95 ± 2.3
